Source: EP4574819A1, “DIAZINONE COMPOUNDS FOR THE CONTROL OF INVERTEBRATE PESTS” (priority 2023, dated 2025)

Legend:
Assay type in all cases: in vivo
[1] = system: Diamond back moth (Plutella xylostella); experiment: Diamond back moth (Plutella xylostella) cabbage leaf dip test; conditions: 3rd instar larvae, 72 hours after treatment, in comparison with untreated controls
Description: B.3 Diamond back moth (Plutella xylostella)
The active compound was dissolved at the desired concentration in a mixture of 1:1 (vol:vol) distilled water: acetone. Surfactant (Kinetic HV) was added at a rate of 0.01% (vol/vol). The test solution was prepared on the day of use.
Leaves of cabbage were dipped in test solution and air-dried. Treated leaves were placed in petri dishes lined with moist filter paper and inoculated with ten 3rd instar larvae. Mortality was recorded 72 hours after treatment. Feeding damages were also recorded using a scale of 0-100%.

[2] = system: Yellow fever mosquito (Aedes aegypti); experiment: whole plant or invertebrate; conditions: larval mortality after 2 days, in comparison with untreated controls
Description: B.4 Yellow fever mosquito (Aedes aegypti)
For evaluating control of yellow fever mosquito (Aedes aegypti) the test unit consists of 96-well-microtiter plates containing 200µl of tap water per well and 5-15 freshly hatched A. aegypti larvae.
The active compounds are formulated using a solution containing 75% (v/v) water and 25% (v/v) DMSO. Different concentrations of formulated compounds or mixtures are sprayed onto the insect diet at 2.5µl, using a custom-built micro atomizer, at two replications.
After application, microtiter plates are incubated at 28±1°C, 80±5 % RH for 2 days. Larval mortality is then visually assessed.

[3] = system: Green peach aphid (Myzus persicae); experiment: Green peach aphid (Myzus persicae) systemic test, artificial diet under artificial membrane; conditions: adult aphids, 3 days, in comparison with untreated controls
From the text: B.5 Green peach aphid (Myzus persicae)
For evaluating control of green peach aphid (Myzus persicae) through systemic means, the test unit consisted of 96-well-microtiter plates containing liquid artificial diet under an artificial membrane.
The compounds were formulated using a solution containing 75% v/v water and 25% v/v DMSO. Different concentrations of formulated compounds were pipetted into the aphid diet, using a custom built pipetter, at two replications.
After application, 5 - 8 adult aphids were placed on the artificial membrane inside the microtiter plate wells. The aphids were then allowed to suck on the treated aphid diet and incubated at about 23 ± 1°C and about 50 ± 5 % relative humidity for 3 days. Aphid mortality and fecundity was then visually assessed.

[4] = system: Boll weevil (Anthonomus grandis); experiment: Boll weevil (Anthonomus grandis) egg/larval mortality on sprayed insect diet in 96-well microtiter plates; conditions: 2500 ppm; egg and larval mortality after 5 days; in comparison with untreated controls
Description: B.2 Boll weevil (Anthonomus grandis)
For evaluating control of boll weevil (Anthonomus grandis) the test unit consists of 96-well-microtiter plates containing an insect diet and 5-10 A. grandis eggs.
The compounds are formulated using a solution containing 75% v/v water and 25% v/v DMSO. Different concentrations of formulated compounds are sprayed onto the insect diet at 5µl, using a custom-built micro atomizer, at two replications.
After application, microtiter plates are incubated at about 25 ± 1°C and about 75 ± 5 % relative humidity for 5 days. Egg and larval mortality is then visually assessed.

[5] = system: Tobacco budworm (Heliothis virescens); experiment: Tobacco budworm (Heliothis virescens) egg/larval mortality on sprayed insect diet in 96-well microtiter plates; conditions: 120 h, egg and larval mortality after 5 days, in comparison with untreated controls
Description: B.1 Tobacco budworm (Heliothis virescens)
For evaluating control of tobacco budworm (Heliothis virescens) the test unit consists of 96-well-microtiter plates containing an insect diet and 15-25 H. virescens eggs.
The compounds are formulated using a solution containing 75% v/v water and 25% v/v DMSO. Different concentrations of formulated compounds are sprayed onto the insect diet at 10µl, using a custom-built micro atomizer, at two replications.
After application, microtiter plates are incubated at about 28 ± 1°C and about 80 ± 5 % relative humidity for 5 days. Egg and larval mortality is then visually assessed.

Structure (SMILES) | mortality ([1]; 2500 ppm) | mortality ([2]; 2500 ppm) | mortality ([3]; 2500 ppm) | mortality [4] | mortality at 2500 ppm ([1]; Plutella xylostella, foliar) | mortality at 2500 ppm [5] | mortality at 2500 ppm ([2]; Aedes aegypti, 48 h) | mortality at 2500 ppm ([3]; Myzus persicae, 72 h)
CC(NC(=O)c1cc(C(F)(F)F)cc(C(F)(F)F)c1)c1nccnc1C1=NNC(=O)CN1C (centres unmarked) [Compound I-1, N-(1-(3-(4-Methyl-6-oxo-1,4,5,6-tetrahydro-1,2,4-triazin-3-yl)pyrazin-2-yl)ethyl)-3,5-bis(trifluoromethyl)benzamide] | at least 75% | at least 75% | at least 75% | at least 75% | – | – | – | –
CC(NC(=O)c1cc(C(F)(F)F)cc(C(F)(F)F)c1)c1nccnc1C1=NN(C)C(=O)CO1 (centres unmarked) [Compound I-4, N-(1-(3-(4-methyl-5-oxo-5,6-dihydro-4H-1,3,4-oxadiazin-2-yl)pyrazin-2-yl)ethyl)-3,5-bis(trifluoromethyl)benzamide] | – | – | – | – | ≥ 75% | ≥ 75% | ≥ 75% | ≥ 75%
